# Laboratory results: patent publication US11845760B2, “PRMT5 inhibitors” (AMGEN INC., priority 2020, dated 2023)
# Where two headings read alike, the source gives them in different places.
# Tests used:
# HCT116 MTAP null cells = test: HCT116 MTAP null cell line proliferation (CellTiter-Glo cell viability, 6 days); format: cell-based; details: HCT116 MTAP null cells, 6 days of treatment, CellTiter-Glo cell viability, read-out: HCT-116 MTAP null IC50
# Method in brief: (§1)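 Viability by CellTiter-Glo after 6 days' drug exposure in wild-type HCT116 and its MTAP-null knockout, with DMSO-only control. Dosing used either 1:3 steps (top 1 or 10 μM) or 22 points in 1:2 steps (top 10 or 50 μM). IC50 taken where the fitted curve crosses 50% of control.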
# HCT116 WT cells = test: HCT116 WT cell line proliferation (CellTiter-Glo cell viability, 6 days); format: cell-based; details: HCT116 WT (parent) cells, 6 days of treatment, CellTiter-Glo cell viability, read-out: HCT-116 WT IC50
# Method in brief: as §1
Compound,"IC50 (HCT116 MTAP null cells; HCT116-MTAP null, 144 h)","IC50 (HCT116 WT cells; Homo sapiens, HCT-116, 144 h)",IC50 (HCT116 MTAP null cells),IC50 (HCT116 WT cells)
"Nc1nc2ccc(C(=O)N3CCOC[C@@H]3c3ccc(C(F)(F)F)cc3)cc2c2ccsc12 (single isomer, unassigned) [Example 488]",> 1000 nM,7490 nM,–,–
"Nc1nc2ccc(C(=O)N3CCCC[C@H]3c3ccc(C(F)(F)F)cc3)cc2c2ccsc12 (single isomer, unassigned) [Example 489]",> 1000 nM,5320 nM,–,–
"Nc1nc2ccc(C(=O)N3CCCC[C@@H]3c3ccc(C(F)(F)F)cc3)cc2c2ccsc12 (single isomer, unassigned) [Example 490]",> 1000 nM,4800 nM,–,–
"CC(C)C[C@@H]1COC[C@H](c2ccc(C(F)(F)F)cc2)N1C(=O)c1cc2c3c(c(N)nc2cn1)COC3 (single isomer, unassigned) [Example 566]",> 10000 nM,> 10000 nM,–,–
"CC(C)C[C@H]1COC[C@@H](c2ccc(C(F)(F)F)cc2)N1C(=O)c1cc2c3c(c(N)nc2cn1)COC3 (single isomer, unassigned) [Example 567]",2140 nM,> 10000 nM,–,–
"C[C@H]1OCc2c1c(N)nc1ccc(C(=O)N3CCOC[C@@H]3c3ccc(OC(F)(F)F)cc3)cc21 (single isomer, unassigned) [Example 568]",36 nM,1790 nM,–,–
"C[C@@H]1OCc2c1c(N)nc1ccc(C(=O)N3CCOC[C@@H]3c3ccc(OC(F)(F)F)cc3)cc21 (single isomer, unassigned) [Example 569]",> 1000 nM,> 10000 nM,–,–
"Nc1nc2ccc(C(=O)N3CCOC[C@@H]3c3ccc(C(F)(F)F)cn3)cc2c2c1COC2 (single isomer, unassigned) [Example 570]",221 nM,8760 nM,–,–
"Nc1nc2ccc(C(=O)N3CCOC[C@H]3c3ccc(C(F)(F)F)cn3)cc2c2c1COC2 (single isomer, unassigned) [Example 571]",> 1000 nM,> 10000 nM,–,–
"Nc1nc2ccc(C(=O)N3CCOC[C@H]3c3ccc(Br)cn3)cc2c2c1COC2 (single isomer, unassigned) [Example 572]",> 1000 nM,> 10000 nM,–,–
"Nc1nc2ccc(C(=O)N3CCOC[C@@H]3c3ccc(Br)cn3)cc2c2c1COC2 (single isomer, unassigned) [Example 573]",241 nM,> 10000 nM,–,–
"C[C@@H]1CN(C(=O)c2ccc3nc(N)c4c(c3c2)COC4)[C@H](c2ccc(C(F)(F)F)cn2)CO1 (single isomer, unassigned) [Example 574]",> 1000 nM,> 10000 nM,–,–
"C[C@H]1CN(C(=O)c2ccc3nc(N)c4c(c3c2)COC4)[C@@H](c2ccc(C(F)(F)F)cn2)CO1 (single isomer, unassigned) [Example 575]",357 nM,8480 nM,–,–
"N#Cc1ccc([C@@H]2COCCN2C(=O)c2ccc3nc(N)c4c(c3c2)COC4)nc1 (single isomer, unassigned) [Example 576]",> 1000 nM,> 10000 nM,–,–
"N#Cc1ccc([C@H]2COCCN2C(=O)c2ccc3nc(N)c4c(c3c2)COC4)nc1 (single isomer, unassigned) [Example 577]",873 nM,> 10000 nM,–,–
"Nc1nc2ccc(C(=O)N3CCOC[C@H]3c3cccc(Cl)c3)cc2c2c1COC2 (single isomer, unassigned) [Example 578]",> 1000 nM,> 10000 nM,–,–
"Nc1nc2ccc(C(=O)N3CCOC[C@@H]3c3cccc(Cl)c3)cc2c2c1COC2 (single isomer, unassigned) [Example 579]",182 nM,7570 nM,–,–
"Nc1nc2ccc(C(=O)N3CCOC[C@H]3c3ccc(Cl)cc3)cc2c2c1COC2 (single isomer, unassigned) [Example 580]",> 1000 nM,> 10000 nM,–,–
"Nc1nc2ccc(C(=O)N3CCOC[C@@H]3c3ccc(Cl)cc3)cc2c2c1COC2 (single isomer, unassigned) [Example 581]",183 nM,6570 nM,–,–
"C[C@H]1COC[C@@H](c2ccc(C(F)(F)F)cn2)N1C(=O)c1ccc2nc(N)c3c(c2c1)COC3 (single isomer, unassigned) [Example 582]",> 1000 nM,> 10000 nM,–,–
"CC1COC[C@H](c2ccc(C(F)(F)F)cn2)N1C(=O)c1ccc2nc(N)c3c(c2c1)COC3 (single isomer, unassigned) [Example 583]",17 nM,616 nM,–,–

Compound,"IC50 (HCT116 MTAP null cells; HCT116-MTAP null, 144 h)","IC50 (HCT116 WT cells; Homo sapiens, HCT-116, 144 h)",IC50 (HCT116 MTAP null cells),IC50 (HCT116 WT cells)
"Cn1ncc2c3cc(C(=O)N4CCOC[C@@H]4c4ccc(C(F)(F)F)cc4)ccc3nc(N)c21 (single isomer, unassigned) [Example 584]",236 nM,11700 nM,–,–
"C[C@@H]1CN(C(=O)c2ccc3nc(N)c4c(c3c2)COC4)[C@@H](c2ccc(OC(F)(F)F)cc2)CO1 (single isomer, unassigned) [Example 585]",> 1000 nM,> 10000 nM,–,–
"C[C@H]1CN(C(=O)c2ccc3nc(N)c4c(c3c2)COC4)[C@H](c2ccc(OC(F)(F)F)cc2)CO1 (single isomer, unassigned) [Example 586]",82 nM,2920 nM,–,–
"C[C@H]1COC[C@@H](c2ccc(OC(F)(F)F)cc2)N1C(=O)c1ccc2nc(N)c3c(c2c1)COC3 (single isomer, unassigned) [Example 587]",> 1000 nM,> 10000 nM,–,–
"C[C@@H]1COC[C@H](c2ccc(OC(F)(F)F)cc2)N1C(=O)c1ccc2nc(N)c3c(c2c1)COC3 (single isomer, unassigned) [Example 588]",14 nM,466 nM,–,–
"CC(C)(C)OC(=O)N1CCN(C(=O)c2cc3c4c(c(N)nc3cn2)COC4)[C@@H](c2ccc(C(F)(F)F)cc2)C1 (single isomer, unassigned) [Example 589]",–,–,5100 nM,> 10000 nM
"CC(C)(C)OC(=O)N1CCN(C(=O)c2cc3c4c(c(N)nc3cn2)COC4)[C@H](c2ccc(C(F)(F)F)cc2)C1 (single isomer, unassigned) [Example 590]",–,–,56 nM,1800 nM
"Nc1nc2ccc(C(=O)N3CCOC[C@H]3c3ccc(OC(F)(F)F)nc3)cc2c2c1COC2 (single isomer, unassigned) [Example 591]",6160 nM,> 10000 nM,–,–
"Nc1nc2ccc(C(=O)N3CCOC[C@@H]3c3ccc(OC(F)(F)F)nc3)cc2c2c1COC2 (single isomer, unassigned) [Example 592]",145 nM,8900 nM,–,–
"Nc1nc2ccc(C(=O)N3CCOC[C@@H]3c3ccc(C(F)(F)F)nn3)cc2c2c1COC2 (single isomer, unassigned) [Example 593]",936 nM,> 10000 nM,–,–
"Nc1nc2cnc(C(=O)N3CCSC[C@@H]3c3ccc(C(F)(F)F)cc3)cc2c2c1COC2 (single isomer, unassigned) [Example 595, (4-amino-1,3-dihydrofuro[3,4-c][1,7]naphthyridin-8-yl)((3S)-3-(4-(trifluoromethyl)phenyl)-4-thiomorpholinyl)methanone or (4-amino-1,3-dihydrofuro[3,4-c][1,7]naphthyridin-8-yl)((3R)-3-(4-(trifluoromethyl)phenyl)-4-thiomorpholinyl)methanone]",138 nM,8010 nM,–,–
"Nc1nc2cnc(C(=O)N3CCNC[C@@H]3c3ccc(C(F)(F)F)cc3)cc2c2c1COC2 (single isomer, unassigned) [Example 596, (4-amino-1,3-dihydrofuro[3,4-c][1,7]naphthyridin-8-yl)((2S)-2-(4-(trifluoromethyl)phenyl)-1-piperazinyl)methanone or (4-amino-1,3-dihydrofuro[3,4-c][1,7]naphthyridin-8-yl)((2R)-2-(4-(trifluoromethyl)phenyl)-1-piperazinyl)methanone]",580 nM,> 10000 nM,–,–
"Nc1nc2cnc(C(=O)N3CCCOC[C@@H]3c3ccc(C(F)(F)F)cc3)cc2c2c1COC2 (single isomer, unassigned) [Example 597, (4-amino-1,3-dihydrofuro[3,4-c][1,7]naphthyridin-8-yl)((3S)-3-(4-(trifluoromethyl)phenyl)-1,4-oxazepan-4-yl)methanone or (4-amino-1,3-dihydrofuro[3,4-c][1,7]naphthyridin-8-yl)((3R)-3-(4-(trifluoromethyl)phenyl)-1,4-oxazepan-4-yl)methanone]",866 nM,> 10000 nM,–,–
"Nc1nc2cnc(C(=O)N3CCC(F)(F)C[C@@H]3c3ccc(C(F)(F)F)cc3)cc2c2c1COC2 (single isomer, unassigned) [Example 598]",807 nM,> 10000 nM,–,–
"Nc1nc2cnc(C(=O)N3CCC(F)(F)C[C@H]3c3ccc(C(F)(F)F)cc3)cc2c2c1COC2 (single isomer, unassigned) [Example 599]",> 10000 nM,> 10000 nM,–,–
"Nc1nc2cnc(C(=O)N3CCC(F)(F)C[C@@H]3c3ccc(OC(F)(F)F)cc3)cc2c2c1COC2 (single isomer, unassigned) [Example 600]",921 nM,> 10000 nM,–,–
"Nc1nc2cnc(C(=O)N3CCC(F)(F)C[C@H]3c3ccc(OC(F)(F)F)cc3)cc2c2c1COC2 (single isomer, unassigned) [Example 601]",> 10000 nM,> 10000 nM,–,–
"Nc1nc2cnc(C(=O)N3CCOC[C@@H]3c3c(F)cc(Br)cc3F)cc2c2c1COC2 (single isomer, unassigned) [Example 602]",149 nM,10000 nM,–,–
"Nc1nc2ccc(C(=O)N3CCOC[C@@H]3c3ccc(CC(F)(F)F)cc3)cc2c2c1COC2 (single isomer, unassigned) [Example 603]",420 nM,10200 nM,–,–
"Nc1nc2cnc(C(=O)N3CCOC[C@@H]3c3ccc(CC(F)(F)F)cc3)cc2c2c1COC2 (single isomer, unassigned) [Example 604]",87 nM,7270 nM,–,–
